From US20180118707A1, “BETA-NAPHTHOISOFLAVONES, COMPOSITIONS CONTAINING, AND USES OF, SAME” (Thesan Pharmaceuticals, Inc., priority 2015, published 2018)

Experiments:
[1] = system: CYP1A1 enzyme; experiment: Induction of CYP1A1 enzyme in HepG2 cells, EROD assay; format: cell-based, human; details: 10 uM, 24 h
Procedure: (§1) The formation of resorufin is quantified by fluorometry with a fluorescence plate reader. Fluorescence is determined at λex 570 nm and λem 590 nm. The amount of resorufin is calculated from a standard curve generated using 0 to 1 μM resorufin in water at ½ log dilutions. The remaining (i.e. all cells present at the beginning of analysis, since only supernatant is taken to assay EROD) live cells are subsequently utilized for the MIT cytotoxicity assay. MTT is made up in serum-free medium at 5 mg/ml. then added to the cells giving a final concentration of 10% (0.5 mg/ml MTT final) then incubated for 2 h. The medium is carefully removed, then MTT formazan is solubilized by adding 200 μl of DMSO and subsequently mixed on a plate shaker. The absorbance is measured spectra photometrically at 550 nm and background absorbance at 690 nm is subtracted. A standard curve generated using MIT formazan (dissolved in DMSO) from O—200 μM (0, 2, 5, 10, 20, 50, 100, 200 μM) is used to calculate the final experimental values which are then expressed as (wnol resarufin/mol MTT formazan) or as fold-Induction compared to solvent.

[2] = system: CYP1A1; experiment: as above; format: cell-based, human; details: human, probe 7-ethoxyresorufin (8 μM)
Procedure: as §1

[3] = biological target: T1, Aryl Hydrocarbon Receptor (Homo sapiens, UniProt P35869); experiment: AhR activation luciferase reporter in Hep G2-plox-XRE TATA-Luc cells; format: cell-based; details: treatment for 24 h with 1-10 uM
T1 construct: endogenous in cells; host or cells: Normal human keratinocytes (NHK) transduced with the lentivector plox-XRE TATA-Luc (reporter only)
T1 sequence (P35869 11-848): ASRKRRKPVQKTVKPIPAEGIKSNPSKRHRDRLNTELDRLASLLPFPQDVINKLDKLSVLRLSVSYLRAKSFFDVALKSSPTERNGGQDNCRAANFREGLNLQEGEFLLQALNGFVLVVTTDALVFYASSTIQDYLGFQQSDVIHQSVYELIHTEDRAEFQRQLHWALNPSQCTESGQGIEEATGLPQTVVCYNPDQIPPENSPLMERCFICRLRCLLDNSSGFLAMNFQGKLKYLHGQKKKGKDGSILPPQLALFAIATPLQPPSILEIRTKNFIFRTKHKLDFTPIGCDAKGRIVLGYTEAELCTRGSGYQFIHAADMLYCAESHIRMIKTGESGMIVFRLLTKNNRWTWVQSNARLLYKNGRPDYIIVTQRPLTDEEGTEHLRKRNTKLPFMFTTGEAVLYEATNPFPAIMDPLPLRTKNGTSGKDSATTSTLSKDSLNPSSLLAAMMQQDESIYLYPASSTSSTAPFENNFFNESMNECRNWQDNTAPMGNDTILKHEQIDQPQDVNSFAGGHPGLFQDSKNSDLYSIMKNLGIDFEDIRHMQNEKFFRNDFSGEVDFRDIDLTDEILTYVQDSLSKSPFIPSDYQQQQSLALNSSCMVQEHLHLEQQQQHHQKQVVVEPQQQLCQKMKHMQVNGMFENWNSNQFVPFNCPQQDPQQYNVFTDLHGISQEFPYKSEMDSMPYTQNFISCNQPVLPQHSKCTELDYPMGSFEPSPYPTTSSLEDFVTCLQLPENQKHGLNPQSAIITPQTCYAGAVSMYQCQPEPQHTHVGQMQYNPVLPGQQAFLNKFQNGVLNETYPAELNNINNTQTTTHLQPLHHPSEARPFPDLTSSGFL
Procedure: AhR activation is measured in HEP G2 cells (hepatocytes, Hep G2 is a human liver carcinoma cell line) stably transfected with the lentivector plox-XRE TATA-Luc. The Hep G2 cells are cultured in a growing media consisting of DM EM (Glbco)+10% fetal bovine serum+penicillin+streptomycin. At D0, the Hep G2 cells are seeded into 12-well plates in proportions of approximately 30,000 cells/cm^2. After 24 h, the medium is replaced with fresh medium and the cells are transduced with the lentivector plox-XRE TATA-Luc. After 48 h, the cells are subcultured and maintained in culture, and tested for their reactivity to 3-phenyl-1H-benzo[f]chromen-1-one. The tests are carried out using the luciferase reporter assay system kit from Promega. At D0, the cells are seeded at a density of approximately 60% confluence, and then treated, at D1, with the test substance diluted to various concentrations in the appropriate culture medium. At D2, the cells are lysed in CLB buffer, and the lysate is clarified by centrifugation for 5 min at 10 000 g. The luciferase activity is measured in 20 microliters of lysate as recommended by the supplier, using the luminoskan luminometer (Thermo). […] Data is processed and ECso's can be calculated from standard data monitoring software.

[4] = biological target: T1, Aryl Hydrocarbon Receptor; experiment: AhR activation luciferase reporter in NHK-plox-XRE TATA-Luc cells; format: cell-based; details: treatment for 24 h with 1-10 uM
Procedure: AhR activation is also measured in human skin cells such as normal human keratinocytes (NHK cells) or A431 epidermoid cells stably transfected with the lentivector plox-XRE TATA-Luc. The NHK cells are cultured in a specific keratinocyte SFM medium (Glbco)+penicillin+streptomycin. At D0, the NHK cells are seeded Into 6-well plates in a proportion of approximately 15,000 cells/cm^2. After 24 h, the medium is replaced with fresh medium and the cells are transduced with the lentivector plox-XRE TATA-Luc. After 48 h, the cells are subcultured and maintained in culture, and tested for their reactivity to 3-phenyl-1H-benzo[f]chromen-1-one. The tests are carried out using the luciferase reporter assay system kit from Promega. At D0, the cells are seeded at a density of approximately 60% confluence, and then treated, at D1, with the test substance diluted to various concentrations in the appropriate culture medium. At D2, the cells are lysed in CLB buffer, and the lysate is clarified by centrifugation for 5 min at 10 000 g. The luciferase activity is measured in 20 microliters of lysate as recommended by the supplier, using the luminoskan luminometer (Thermo). […] Data is processed and ECso's can be calculated from standard data monitoring software.

O=c1cc(-c2ccccc2)oc2ccc3ccccc3c12 [D, 3-Phenyl-1H-benzo[f]chromen-1-one, reference compound]
% change vs. TCDD EROD (HepG2) at 10 uM [1]: 19% | EC50 at 24 h [2]: 1000 nM | induction of the luciferase activity [3]: significant induction | induction of luciferase activity [4]: significant induction
